Measurements: the kinase profiling compilation of Christmann-Franck et al. (2016)
“And” between values parts separate entries of the source, which are not always exact repeats. Identical values can stand only once.

Key:
Test in all cases: radiometric filter-binding kinase assay, Kinase HotSpot
Settings in all cases: compound 0.5 µM; ATP 10 µM
[1] = target: HCK (human) (UniProt P08631)
[2] = target: LYN (human) (UniProt P07948)
[3] = target: MAP3K3 (human) (UniProt Q99759)
[4] = target: PBK (human) (UniProt Q96KB5)
[5] = target: MET (human) (UniProt P08581)
[6] = target: CSNK2A1 (human) (UniProt P68400)
[7] = target: CAMK4 (human) (UniProt Q16566)
[8] = target: MAPK3 (human) (UniProt P27361)
[9] = target: EPHA1 (human) (UniProt P21709)
[10] = target: CDC42BPA (human) (UniProt Q5VT25)
[11] = target: DCLK2 (human) (UniProt Q8N568)
[12] = target: NEK11 (human) (UniProt Q8NG66)
[13] = target: GRK7 (human) (UniProt Q8WTQ7)
[14] = target: EPHA3 (human) (UniProt P29320)
[15] = target: PAK3 (human) (UniProt O75914)
[16] = target: PRKCB2 (human) (UniProt P05771)
[17] = target: CAMKK2 (human) (UniProt Q96RR4)
[18] = target: GRK4 (human) (UniProt P32298)
[19] = target: MARK2 (human) (UniProt Q7KZI7)
[20] = target: FGFR3 (human) (UniProt P22607)
Sequence of FGFR3 (human) (P22607 whole entry, looked up): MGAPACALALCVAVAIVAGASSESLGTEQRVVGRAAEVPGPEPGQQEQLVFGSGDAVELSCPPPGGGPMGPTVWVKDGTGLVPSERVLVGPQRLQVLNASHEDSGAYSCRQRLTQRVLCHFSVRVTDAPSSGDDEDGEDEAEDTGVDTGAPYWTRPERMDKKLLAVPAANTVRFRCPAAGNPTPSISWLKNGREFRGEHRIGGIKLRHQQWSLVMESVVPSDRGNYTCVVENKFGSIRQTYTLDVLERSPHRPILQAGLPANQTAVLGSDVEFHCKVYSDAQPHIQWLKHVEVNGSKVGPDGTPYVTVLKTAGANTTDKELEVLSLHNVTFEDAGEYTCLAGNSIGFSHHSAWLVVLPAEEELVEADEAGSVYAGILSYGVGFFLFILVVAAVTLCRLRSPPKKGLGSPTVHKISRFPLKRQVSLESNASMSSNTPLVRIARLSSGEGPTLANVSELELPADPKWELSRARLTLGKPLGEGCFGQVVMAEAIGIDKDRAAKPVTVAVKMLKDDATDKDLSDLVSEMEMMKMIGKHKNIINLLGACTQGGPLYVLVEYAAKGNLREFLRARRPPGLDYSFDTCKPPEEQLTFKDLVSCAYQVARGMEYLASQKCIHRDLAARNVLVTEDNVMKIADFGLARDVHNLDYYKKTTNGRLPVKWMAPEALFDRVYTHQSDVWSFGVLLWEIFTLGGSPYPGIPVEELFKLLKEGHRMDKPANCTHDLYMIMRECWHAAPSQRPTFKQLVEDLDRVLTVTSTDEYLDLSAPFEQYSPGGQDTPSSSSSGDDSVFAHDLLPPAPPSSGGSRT

[21] = target: CLK1 (human) (UniProt P49759)
[22] = target: WNK2 (human) (UniProt Q9Y3S1)
[23] = target: NEK1 (human) (UniProt Q96PY6)
[24] = target: SIK2 (human) (UniProt Q9H0K1)
Sequence of SIK2 (human) (Q9H0K1 whole entry, looked up): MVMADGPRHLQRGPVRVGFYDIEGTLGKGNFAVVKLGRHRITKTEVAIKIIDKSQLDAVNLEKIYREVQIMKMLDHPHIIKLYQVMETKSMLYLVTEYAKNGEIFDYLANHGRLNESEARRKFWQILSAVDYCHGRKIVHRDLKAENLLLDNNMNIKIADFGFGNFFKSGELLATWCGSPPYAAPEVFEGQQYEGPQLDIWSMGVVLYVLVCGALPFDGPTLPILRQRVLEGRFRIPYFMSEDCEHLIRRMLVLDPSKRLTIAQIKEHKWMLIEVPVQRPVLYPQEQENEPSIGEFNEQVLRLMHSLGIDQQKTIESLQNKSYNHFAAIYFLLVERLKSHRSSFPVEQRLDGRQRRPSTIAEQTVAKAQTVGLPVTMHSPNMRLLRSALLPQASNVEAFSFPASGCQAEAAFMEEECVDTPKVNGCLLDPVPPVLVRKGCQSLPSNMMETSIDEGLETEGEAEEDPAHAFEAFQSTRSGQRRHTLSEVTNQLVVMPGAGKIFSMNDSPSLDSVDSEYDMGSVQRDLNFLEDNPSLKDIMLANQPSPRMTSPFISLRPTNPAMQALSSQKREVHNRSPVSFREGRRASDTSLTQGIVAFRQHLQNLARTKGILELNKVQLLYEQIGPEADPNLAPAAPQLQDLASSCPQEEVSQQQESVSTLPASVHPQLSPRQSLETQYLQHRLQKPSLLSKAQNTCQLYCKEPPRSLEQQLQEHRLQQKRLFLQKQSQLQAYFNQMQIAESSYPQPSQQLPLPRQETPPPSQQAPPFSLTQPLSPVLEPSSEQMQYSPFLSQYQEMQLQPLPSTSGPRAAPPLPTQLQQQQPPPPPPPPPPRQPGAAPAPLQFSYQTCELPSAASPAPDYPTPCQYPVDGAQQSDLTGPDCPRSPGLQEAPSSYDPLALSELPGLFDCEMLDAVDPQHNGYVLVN

[25] = target: PRKCH (human) (UniProt P24723)
[26] = target: FYN (human) (UniProt P06241)
[27] = target: PTK2B (human) (UniProt Q14289)
Sequence of PTK2B (human) (Q14289 whole entry, looked up): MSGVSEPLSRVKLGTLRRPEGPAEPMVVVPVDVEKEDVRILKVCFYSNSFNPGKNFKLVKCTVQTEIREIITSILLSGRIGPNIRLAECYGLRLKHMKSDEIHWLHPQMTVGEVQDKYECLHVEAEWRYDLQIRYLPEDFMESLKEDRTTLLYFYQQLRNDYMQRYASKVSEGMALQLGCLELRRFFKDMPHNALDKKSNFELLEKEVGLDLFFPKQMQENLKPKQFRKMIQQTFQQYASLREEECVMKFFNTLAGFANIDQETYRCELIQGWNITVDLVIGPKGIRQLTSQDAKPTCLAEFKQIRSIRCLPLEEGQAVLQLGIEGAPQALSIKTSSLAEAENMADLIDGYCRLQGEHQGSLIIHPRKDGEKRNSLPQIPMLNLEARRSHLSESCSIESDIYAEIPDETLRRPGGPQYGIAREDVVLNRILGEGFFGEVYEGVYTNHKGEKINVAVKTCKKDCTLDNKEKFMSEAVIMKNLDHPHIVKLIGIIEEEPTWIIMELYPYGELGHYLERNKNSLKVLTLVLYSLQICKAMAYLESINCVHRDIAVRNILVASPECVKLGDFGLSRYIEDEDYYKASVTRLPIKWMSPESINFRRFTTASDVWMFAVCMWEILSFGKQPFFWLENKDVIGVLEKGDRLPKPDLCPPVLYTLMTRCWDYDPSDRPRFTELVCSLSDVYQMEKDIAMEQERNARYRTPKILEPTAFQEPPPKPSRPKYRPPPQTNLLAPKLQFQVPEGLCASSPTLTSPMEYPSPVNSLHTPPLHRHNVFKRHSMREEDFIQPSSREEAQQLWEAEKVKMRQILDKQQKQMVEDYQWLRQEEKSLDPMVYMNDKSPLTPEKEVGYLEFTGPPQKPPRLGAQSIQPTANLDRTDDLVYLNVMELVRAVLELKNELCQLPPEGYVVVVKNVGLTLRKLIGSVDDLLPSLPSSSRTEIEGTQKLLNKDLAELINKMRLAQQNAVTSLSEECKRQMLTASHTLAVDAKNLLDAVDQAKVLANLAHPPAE

[28] = target: MAPK8 (human) (UniProt P45983)
[29] = target: MAPKAPK5 (human) (UniProt Q8IW41)
[30] = target: PRKCZ (human) (UniProt Q05513)
[31] = target: CDK2 CCNE1 (human) (UniProt P24941+P24864)
Sequence of CDK2 CCNE1 (human) (P24864 whole entry, looked up, other chains not shown): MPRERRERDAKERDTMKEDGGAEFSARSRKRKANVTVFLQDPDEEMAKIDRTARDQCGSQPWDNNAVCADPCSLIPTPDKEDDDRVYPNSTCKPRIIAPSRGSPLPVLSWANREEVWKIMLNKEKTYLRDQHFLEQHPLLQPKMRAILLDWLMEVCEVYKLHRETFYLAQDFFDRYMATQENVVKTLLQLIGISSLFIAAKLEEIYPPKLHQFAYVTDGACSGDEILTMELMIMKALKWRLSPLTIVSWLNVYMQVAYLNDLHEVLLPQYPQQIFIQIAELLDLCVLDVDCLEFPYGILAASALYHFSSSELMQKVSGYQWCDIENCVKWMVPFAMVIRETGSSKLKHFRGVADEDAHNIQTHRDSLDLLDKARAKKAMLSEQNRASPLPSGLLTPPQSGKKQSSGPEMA

[32] = target: PRKCA (human) (UniProt P17252)
[33] = target: DYRK1B (human) (UniProt Q9Y463)
[34] = target: CHEK1 (human) (UniProt O14757)
Sequence of CHEK1 (human) (O14757 whole entry, looked up): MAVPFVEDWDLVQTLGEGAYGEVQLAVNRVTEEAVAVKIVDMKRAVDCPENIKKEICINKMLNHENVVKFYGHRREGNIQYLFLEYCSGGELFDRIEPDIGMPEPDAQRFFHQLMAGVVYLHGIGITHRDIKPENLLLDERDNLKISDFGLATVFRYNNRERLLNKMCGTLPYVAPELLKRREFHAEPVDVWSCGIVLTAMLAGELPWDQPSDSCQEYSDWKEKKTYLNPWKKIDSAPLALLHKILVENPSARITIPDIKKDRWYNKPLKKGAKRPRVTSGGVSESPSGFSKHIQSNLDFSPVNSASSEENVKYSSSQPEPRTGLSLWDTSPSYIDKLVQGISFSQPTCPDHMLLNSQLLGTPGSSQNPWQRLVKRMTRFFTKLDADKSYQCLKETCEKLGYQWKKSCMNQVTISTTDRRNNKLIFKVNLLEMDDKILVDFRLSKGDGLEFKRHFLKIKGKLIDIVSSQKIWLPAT

[35] = target: NTRK3 (human) (UniProt Q16288)
[36] = target: YES1 (human) (UniProt P07947)
[37] = target: TBK1 (human) (UniProt Q9UHD2)
[38] = target: AURKA (human) (UniProt O14965)
[39] = target: FLT1 (human) (UniProt P17948)
[40] = target: CDK6 CCND3 (human) (UniProt P30281+Q00534)
[41] = target: PLK1 (human) (UniProt P53350)
Sequence of PLK1 (human) (P53350 whole entry, looked up): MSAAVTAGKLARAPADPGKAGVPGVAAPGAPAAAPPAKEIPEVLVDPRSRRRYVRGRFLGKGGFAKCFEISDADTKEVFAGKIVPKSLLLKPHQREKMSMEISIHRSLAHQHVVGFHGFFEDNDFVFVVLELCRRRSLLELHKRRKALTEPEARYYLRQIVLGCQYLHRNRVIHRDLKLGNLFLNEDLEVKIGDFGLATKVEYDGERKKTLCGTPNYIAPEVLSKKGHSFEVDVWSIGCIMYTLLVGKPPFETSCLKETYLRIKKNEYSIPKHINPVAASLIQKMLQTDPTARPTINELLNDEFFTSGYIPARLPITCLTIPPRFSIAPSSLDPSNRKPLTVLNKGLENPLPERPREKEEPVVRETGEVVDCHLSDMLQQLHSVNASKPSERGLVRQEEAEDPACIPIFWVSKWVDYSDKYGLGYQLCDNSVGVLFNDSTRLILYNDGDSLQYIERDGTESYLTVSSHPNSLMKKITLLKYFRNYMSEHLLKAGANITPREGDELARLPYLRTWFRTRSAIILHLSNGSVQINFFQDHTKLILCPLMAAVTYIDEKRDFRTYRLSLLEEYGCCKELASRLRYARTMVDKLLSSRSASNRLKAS

[42] = target: RPS6KA4 KD2 (human) (UniProt O75676)

Sequence of HCK (human) (P08631 whole entry, looked up): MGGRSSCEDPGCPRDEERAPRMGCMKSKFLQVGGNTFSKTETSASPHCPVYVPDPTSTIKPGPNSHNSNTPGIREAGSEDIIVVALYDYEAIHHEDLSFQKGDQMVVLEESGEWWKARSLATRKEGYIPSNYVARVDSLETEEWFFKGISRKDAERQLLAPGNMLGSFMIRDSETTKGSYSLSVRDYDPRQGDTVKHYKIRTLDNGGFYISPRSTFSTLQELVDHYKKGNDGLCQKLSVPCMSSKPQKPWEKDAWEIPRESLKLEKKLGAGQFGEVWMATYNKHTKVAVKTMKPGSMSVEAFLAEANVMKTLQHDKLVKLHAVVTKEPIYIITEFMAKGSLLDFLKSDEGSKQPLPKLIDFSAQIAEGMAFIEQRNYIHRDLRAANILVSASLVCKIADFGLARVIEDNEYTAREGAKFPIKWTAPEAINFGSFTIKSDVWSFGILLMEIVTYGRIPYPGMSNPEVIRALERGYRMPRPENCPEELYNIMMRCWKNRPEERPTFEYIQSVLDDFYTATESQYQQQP

For `COc1ccc(CNC(=O)Nc2ncc([N+](=O)[O-])s2)cc1`, the residual activity [1] was 96.7%, the residual activity [2] was 91.4% and 97.7% and the residual activity [3] was 87.6%. The residual activity [4] was 110%, the residual activity [5] was 85.5% and the residual activity [6] was 94.2%. For the same compound, the residual activity [7] was 96.7%, the residual activity [8] was 103% and the residual activity [9] was 107%. For the same compound, the residual activity [10] was 93.7%, the residual activity [11] was 99.2% and the residual activity [12] was 104%. The residual activity [13] was 103%, the residual activity [14] was 111% and the residual activity [15] was 94.6%. The residual activity [16] was 103%, the residual activity [17] was 92.7% and the residual activity [18] was 92.1%. For the same compound, the residual activity [19] was 106%, the residual activity [20] was 108% and the residual activity [21] was 106%. It also gave a residual activity [22] of 104%, a residual activity [23] of 94.3% and a residual activity [24] of 89.4%. For the same compound, the residual activity [25] was 64.1%, the residual activity [26] was 102% and the residual activity [27] was 83.1%. For the same compound, the residual activity [28] was 104%, the residual activity [29] was 90.1% and the residual activity [30] was 96.3%. The residual activity [31] was 97.6%, the residual activity [32] was 61.9% and the residual activity [33] was 99.4%. For the same compound, the residual activity [34] was 98%, the residual activity [35] was 98.7% and the residual activity [36] was 96.1%. It also gave a residual activity [37] of 104%, a residual activity [38] of 97.4% and a residual activity [39] of 96.8%. For the same compound, the residual activity [40] was 99.1%, the residual activity [41] was 102% and the residual activity [42] was 101%.

With `O=C(Nc1cccc(Nc2cc(Nc3cccc(C(F)(F)F)c3)ncn2)c1)C1CC1` the residual activity [1] was 99%, the residual activity [2] was 102% and 99.1% and the residual activity [3] was 95.2%. It also gave a residual activity [4] of 103%, a residual activity [5] of 103% and a residual activity [6] of 92.6%. It also gave a residual activity [7] of 98.5%, a residual activity [8] of 101% and a residual activity [9] of 92.9%. It also gave a residual activity [10] of 77.7%, a residual activity [11] of 101% and a residual activity [12] of 94.3%. The residual activity [13] was 99%, the residual activity [14] was 98.4% and the residual activity [15] was 101%. For the same compound, the residual activity [16] was 107%, the residual activity [17] was 98.5% and the residual activity [18] was 104%. The residual activity [19] was 101%, the residual activity [20] was 102% and the residual activity [21] was 107%. For the same compound, the residual activity [22] was 109%, the residual activity [23] was 109% and the residual activity [24] was 89.4%. For the same compound, the residual activity [25] was 88.2%, the residual activity [26] was 100% and the residual activity [27] was 89.6%. The residual activity [28] was 93.4%, the residual activity [29] was 101% and the residual activity [30] was 104%. The residual activity [31] was 96.7%, the residual activity [32] was 101% and the residual activity [33] was 105%. It also gave a residual activity [34] of 105%, a residual activity [35] of 95.1% and a residual activity [36] of 99.6%. For the same compound, the residual activity [37] was 99%, the residual activity [38] was 107% and the residual activity [39] was 99.4%. It also gave a residual activity [40] of 102%, a residual activity [41] of 98.6% and a residual activity [42] of 100%.

`COc1cc2ncc(-c3ccccc3)nc2cc1OC` was tested, and the residual activity [1] was 96.9%, the residual activity [2] was 90.4% and 96.9% and the residual activity [3] was 90.3%. For the same compound, the residual activity [4] was 85.5%, the residual activity [5] was 92.6% and the residual activity [7] was 95.2%. For the same compound, the residual activity [8] was 97.6%, the residual activity [9] was 95.8% and the residual activity [10] was 85.4%. For the same compound, the residual activity [11] was 96%, the residual activity [12] was 114% and the residual activity [13] was 105%. The residual activity [14] was 86.8%, the residual activity [15] was 94.7% and the residual activity [16] was 88.8%. For the same compound, the residual activity [17] was 114%, the residual activity [18] was 97.8% and the residual activity [19] was 112%. The residual activity [20] was 96%, the residual activity [21] was 102% and the residual activity [22] was 104%. It also gave a residual activity [23] of 95.9%, a residual activity [24] of 93.1% and a residual activity [25] of 107%. It also gave a residual activity [26] of 100%, a residual activity [27] of 85.9% and a residual activity [28] of 102%. The residual activity [29] was 88.1%, the residual activity [30] was 96.3% and the residual activity [31] was 85.4%. It also gave a residual activity [32] of 103%, a residual activity [33] of 110% and a residual activity [34] of 94.7%. It also gave a residual activity [35] of 89.1%, a residual activity [36] of 96.1% and a residual activity [37] of 87.2%. It also gave a residual activity [38] of 90.3%, a residual activity [39] of 85% and a residual activity [40] of 93.7%. The residual activity [41] was 98.5% and the residual activity [42] was 85.4%.
